# Data: patent US9351959B2, “Alpha adreneric receptor agonists for treatment of degenerative disc disease” (WARSAW ORTHOPEDIC INC., priority 2008, dated 2016)
# System: Rat Chronic Constriction Injury Model
# Conditions: 0.02 mg/kg/day subcutaneously; compared to unloaded polymer depots; FIG. 4
# Description: The inventors evaluated the efficacy of a five Month Clonidine/Polymer Drug Depot in the Rat Chronic Constriction Injury Model. The animal model was the Bennett Model (Wistar rat). The purpose: To determine whether a five month polymer clonidine-eluting depot can improve pain associated behavioral responses in a rat model of neuropathic pain.
# Experimental Design: Four loose chromic gut ligatures, 1 mm apart, were tied around the common sciatic nerve at mid-thigh. Each animal received treatment of test or control article—according to the dosing described in Table 5.
# The inventors have conducted the present study for a period of 64 days and have employed the following two tests: (1) the Hargreaves test; and (2) the von Frey test. The Hargreaves Tests of Thermal Hyperalgesia were conducted on days 7, 14, 21, 28, 35, 42, 49, 56 and 63. The von Frey monofilament test of mechanical allodynia (performed the day following Thermal testing) were conducted on days-8, 15, 22, 29, 36, 43, 50, 57 and 64.
smiles,measurement,value
"Clc1cccc(Cl)c1N=C1NCCN1 [clonidine, 2,6-dichloro-N-2-imidazolidinyldenebenzenamine]",pain behavioral response (measured as a percentage of baseline) for mechanical allodynia,reduced the behavioral response
